According to paper PMC5784979, “Direct comparison of the four aldehyde oxidase enzymes present in mouse gives insight into their substrate specificities” (PLoS ONE, 2018):

Biological target: T1, mAOX3 (Mus musculus, UniProt G3X982)
T1 construct: gene Aox3; recombinant from E. coli TP1000 (plasmid pMMA1), Ni-NTA and Superdex 200 purified, chemically sulfurated, dimer (300 kDa)
T1 sequence (G3X982 1-1335): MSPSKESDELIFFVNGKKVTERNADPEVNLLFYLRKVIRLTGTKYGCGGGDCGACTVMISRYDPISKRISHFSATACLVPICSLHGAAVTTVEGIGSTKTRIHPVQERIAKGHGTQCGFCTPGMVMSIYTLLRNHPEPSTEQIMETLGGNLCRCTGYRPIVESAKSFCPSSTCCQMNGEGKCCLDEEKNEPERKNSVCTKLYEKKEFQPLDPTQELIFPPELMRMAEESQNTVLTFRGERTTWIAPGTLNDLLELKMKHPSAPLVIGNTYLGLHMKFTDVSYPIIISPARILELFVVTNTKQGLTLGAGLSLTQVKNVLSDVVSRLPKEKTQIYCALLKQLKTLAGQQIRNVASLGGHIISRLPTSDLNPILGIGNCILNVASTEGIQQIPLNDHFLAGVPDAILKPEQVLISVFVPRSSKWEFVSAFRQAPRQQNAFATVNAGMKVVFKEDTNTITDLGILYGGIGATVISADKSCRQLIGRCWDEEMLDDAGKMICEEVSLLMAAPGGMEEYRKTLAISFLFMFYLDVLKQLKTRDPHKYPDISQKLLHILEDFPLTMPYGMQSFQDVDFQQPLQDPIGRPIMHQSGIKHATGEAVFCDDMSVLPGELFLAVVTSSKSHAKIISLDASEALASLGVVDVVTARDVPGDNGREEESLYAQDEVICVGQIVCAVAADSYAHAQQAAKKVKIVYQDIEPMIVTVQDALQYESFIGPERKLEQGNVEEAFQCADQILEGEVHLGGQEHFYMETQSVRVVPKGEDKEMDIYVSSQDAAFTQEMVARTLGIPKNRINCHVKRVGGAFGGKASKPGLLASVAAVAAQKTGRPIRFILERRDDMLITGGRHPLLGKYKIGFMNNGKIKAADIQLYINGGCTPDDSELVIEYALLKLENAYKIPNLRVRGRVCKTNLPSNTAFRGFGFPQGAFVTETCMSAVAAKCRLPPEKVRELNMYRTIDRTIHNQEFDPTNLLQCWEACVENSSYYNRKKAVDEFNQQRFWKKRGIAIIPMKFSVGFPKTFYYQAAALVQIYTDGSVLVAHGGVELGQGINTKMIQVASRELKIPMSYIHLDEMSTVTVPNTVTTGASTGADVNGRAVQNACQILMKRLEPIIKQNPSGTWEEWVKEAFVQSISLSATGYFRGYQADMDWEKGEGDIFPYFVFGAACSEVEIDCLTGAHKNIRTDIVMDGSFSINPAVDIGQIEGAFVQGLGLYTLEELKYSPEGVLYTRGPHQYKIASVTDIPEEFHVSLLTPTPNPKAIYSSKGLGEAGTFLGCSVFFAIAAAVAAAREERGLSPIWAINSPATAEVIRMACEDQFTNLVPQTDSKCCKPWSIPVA
Experiment: DCPIP reduction at […] nm, steady-state kinetics
Assay type: biochemical
Conditions: 100 μM DCPIP as electron acceptor, 50 mM Tris-HCl, 1 mM EDTA, pH 8.0, 37°C, corrected to 100% Mo saturation

Structure (SMILES)	Km (limit given jointly for mAOX3, mAOX4 and mAOX2) [mM]	Km (range printed jointly for mAOX3, mAOX4 and mAOX2) [mM]
O=Cc1ccc(O)cc1 [4-hydroxybenzaldehyde]	< 0.002	
CC=O [acetaldehyde]		4.4 to 4.6
